# Source: ChEMBL document CHEMBL4418297, “2,5,6,7-tetrasubstituted thiazolo[4,5-b]pyridine derivatives and use thereof” (2018)
# System: Mus musculus
# Assay: Antiinflammatory activity in iv dosed ICR mouse model of CLP-induced sepsis assessed as increase in survival rate
# Type: functional
row,Structure (SMILES),Survival [%]
1,CCCNc1nc2nc3c(c(-c4ccc(OC)cc4)c2s1)CCCC3,40
2,CCCNc1nc2nc3c(c(-c4ccccc4)c2s1)CCCCC3,40
3,CCCNc1nc2nc3c(c(-c4ccc(OC)cc4)c2s1)CCCCC3,40
4,O=[N+]([O-])c1ccc(-c2c3c(nc4nc(N5CCCC5)sc24)CCCC3)cc1,40
